The text below walks through data of patent US20200085749A1, “IMMEDIATE-RELEASE TABLETS CONTAINING A DRUG AND PROCESSES FOR FORMING THE TABLETS” (Genentech, Inc., priority 2015, published 2020).

Data set [1] relates to BRAF^v600 mutation-positive advance melanoma. Conditions: cited from earlier work.
Data set [2] relates to unresectable or metastatic melanoma that is BRAF^v600E mutation-positive. The note with it: cited from earlier work.
Data set [3] can be described thus: 24-hour solubility of active drug in buffers across the physiological pH range. The class given is physicochemical. Conditions: 37° C. Here is the method:
Cobimetinib is considered to be a high-solubility, moderate-to-high permeability compound with in vivo absorption/pharmacokinetic characteristics consistent with Biopharmaceutics Classification System (BCS) Class 1. […] An active drug is considered highly soluble when the highest dose strength is soluble in <250 mL water over a pH range of 1 to 7.5.

`CCCS(=O)(=O)Nc1ccc(F)c(C(=O)c2c[nH]c3ncc(-c4ccc(Cl)cc4)cc23)c1F` [vemurafenib, propane-1-sulfonic acid {3-[5-(4-chlorophenyl)-1H-pyrrolo[2,3-b]pyridine-3-carbonyl]-2,4-difluoro-phenyl}-amide]: in data set [1], the median progression-free survival was 6.2 months. In data set [2] (compared with dacarbazine), the “decrease in the risk of disease progression or death” value was 74% and the “reduction in the risk of death” value is recorded as 63%. In addition, the response rates entry in data set [2] (human, in vivo) is reported as “greater than 50%”.

For “(S)-[3,4-Difluoro-2-(2-fluoro-4-iodoanilino)phenyl]{3-hydroxy-3-[(2S)-piperidin-2-yl]azetidin-1-yl} methanone [cobimetinib hemifumarate]”, the Solubility in data set [3] (50 mM Acetate pH 4.5 (pH measured 4.5)) was 1080 µg/mL; in data set [3] (50 mM Phosphate pH 6.8 (pH measured 6.8)), 780 µg/mL; in data set [3] (50 mM Phosphate pH 7.5 (pH measured 7.5)) it was 730 µg/mL; in data set [3] (0.1M HCl pH 1.1 (pH measured 1.9)) it was 48210 µg/mL; in data set [3] (FaSSIF pH 6.5 (pH measured 6.4)) it was 480 µg/mL; in data set [3] (FeSSIF pH 5.0 (pH measured 5.0)) it was 4130 µg/mL. In addition, the Solubility in data set [3] (Water, pH Neutral (pH measured 7.5)) came to 720 µg/mL.

As usually defined, the Solubility is how much of the substance goes into solution per volume. Read a high Solubility as a readily soluble substance.
